Legend:
Format in all cases: cell-based
Settings in all cases: compounds at 50 nM and 500 nM, 24 hours
IKZF3 = molecular target: T1, IKZF3 (Homo sapiens, UniProt Q96SW2+Q9UKT9); assay: Western-blot assay, substrate protein degradation in hPBMCs: IKZF3
T1 construct: effects of the compounds of the present disclosure on the expression of target proteins in cells; endogenous in cells; host or cells: human PBMCs (hPBMCs)

GSPT1 = molecular target: T2, GSPT1 (Homo sapiens, UniProt P15170+Q96SW2); assay: Western-blot assay, substrate protein degradation in hPBMCs: GSPT1
T2 construct: effects of the compounds of the present disclosure on the expression of target proteins in cells; endogenous in cells; host or cells: human PBMCs (hPBMCs)
T2 sequence (P15170 whole entry): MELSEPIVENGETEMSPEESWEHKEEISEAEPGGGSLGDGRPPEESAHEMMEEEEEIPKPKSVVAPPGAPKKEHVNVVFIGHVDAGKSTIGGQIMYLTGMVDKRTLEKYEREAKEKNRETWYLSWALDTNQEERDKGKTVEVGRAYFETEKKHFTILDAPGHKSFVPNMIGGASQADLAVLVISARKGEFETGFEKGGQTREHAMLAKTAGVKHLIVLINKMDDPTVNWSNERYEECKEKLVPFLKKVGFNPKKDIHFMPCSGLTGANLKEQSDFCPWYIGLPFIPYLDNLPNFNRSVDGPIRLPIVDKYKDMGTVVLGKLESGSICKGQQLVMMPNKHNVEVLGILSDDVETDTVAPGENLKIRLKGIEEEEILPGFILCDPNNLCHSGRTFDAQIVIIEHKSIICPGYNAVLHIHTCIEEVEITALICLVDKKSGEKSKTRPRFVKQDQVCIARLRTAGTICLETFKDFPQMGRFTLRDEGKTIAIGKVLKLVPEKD
T2 sequence (Q96SW2 whole entry): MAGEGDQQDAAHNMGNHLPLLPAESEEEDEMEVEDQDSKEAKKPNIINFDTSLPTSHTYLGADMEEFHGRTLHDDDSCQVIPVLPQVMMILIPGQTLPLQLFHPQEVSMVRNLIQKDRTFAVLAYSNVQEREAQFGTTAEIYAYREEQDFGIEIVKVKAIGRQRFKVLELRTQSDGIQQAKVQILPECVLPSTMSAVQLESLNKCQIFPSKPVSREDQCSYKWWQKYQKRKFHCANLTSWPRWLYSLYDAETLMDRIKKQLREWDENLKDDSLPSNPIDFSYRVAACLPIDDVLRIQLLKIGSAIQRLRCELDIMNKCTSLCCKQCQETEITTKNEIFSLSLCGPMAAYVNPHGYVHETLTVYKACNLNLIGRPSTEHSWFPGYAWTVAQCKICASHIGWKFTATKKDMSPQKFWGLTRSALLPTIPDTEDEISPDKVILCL
T2 sequence (Q16531 whole entry partner): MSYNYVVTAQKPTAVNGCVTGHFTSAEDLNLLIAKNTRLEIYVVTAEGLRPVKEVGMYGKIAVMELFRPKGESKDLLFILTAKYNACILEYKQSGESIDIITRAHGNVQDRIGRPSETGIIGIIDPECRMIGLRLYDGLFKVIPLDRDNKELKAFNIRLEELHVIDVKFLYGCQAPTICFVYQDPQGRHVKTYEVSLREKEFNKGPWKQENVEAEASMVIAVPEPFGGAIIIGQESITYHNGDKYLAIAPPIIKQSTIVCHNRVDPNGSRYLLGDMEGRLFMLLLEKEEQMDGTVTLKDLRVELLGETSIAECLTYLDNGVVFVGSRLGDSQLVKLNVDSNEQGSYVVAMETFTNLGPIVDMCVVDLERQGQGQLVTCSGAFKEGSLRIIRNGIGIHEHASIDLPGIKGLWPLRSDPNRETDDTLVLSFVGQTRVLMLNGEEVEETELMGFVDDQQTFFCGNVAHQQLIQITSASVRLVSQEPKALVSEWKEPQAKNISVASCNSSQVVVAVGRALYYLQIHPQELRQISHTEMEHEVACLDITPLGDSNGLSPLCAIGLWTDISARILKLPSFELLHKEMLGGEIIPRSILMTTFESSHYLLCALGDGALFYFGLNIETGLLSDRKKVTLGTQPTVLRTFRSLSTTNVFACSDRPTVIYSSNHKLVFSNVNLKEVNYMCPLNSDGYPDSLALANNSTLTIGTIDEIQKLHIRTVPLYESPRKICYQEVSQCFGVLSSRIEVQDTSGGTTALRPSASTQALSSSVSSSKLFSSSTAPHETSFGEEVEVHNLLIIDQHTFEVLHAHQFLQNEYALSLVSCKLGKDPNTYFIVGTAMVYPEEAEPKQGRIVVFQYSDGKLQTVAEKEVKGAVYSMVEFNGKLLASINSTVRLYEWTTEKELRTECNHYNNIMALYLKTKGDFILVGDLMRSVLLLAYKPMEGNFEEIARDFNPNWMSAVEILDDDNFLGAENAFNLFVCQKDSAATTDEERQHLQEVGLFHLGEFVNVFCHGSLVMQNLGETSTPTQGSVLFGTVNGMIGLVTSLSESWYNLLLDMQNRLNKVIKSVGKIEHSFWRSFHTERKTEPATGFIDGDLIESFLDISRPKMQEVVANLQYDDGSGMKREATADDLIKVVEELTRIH

WEE1 = molecular target: T3, WEE1 (Homo sapiens, UniProt P30291+Q96SW2); assay: Western-blot assay, substrate protein degradation in hPBMCs: WEE1
T3 construct: effects of the compounds of the present disclosure on the expression of target proteins in cells; endogenous in cells; host or cells: human PBMCs (hPBMCs)

CK1α = molecular target: T4, CK1α (Homo sapiens, UniProt P48729+Q96SW2); assay: Western-blot assay, substrate protein degradation in hPBMCs: CK1α
T4 construct: effects of the compounds of the present disclosure on the expression of target proteins in cells; endogenous in cells; host or cells: human PBMCs (hPBMCs)
T4 sequence (P48729 whole entry): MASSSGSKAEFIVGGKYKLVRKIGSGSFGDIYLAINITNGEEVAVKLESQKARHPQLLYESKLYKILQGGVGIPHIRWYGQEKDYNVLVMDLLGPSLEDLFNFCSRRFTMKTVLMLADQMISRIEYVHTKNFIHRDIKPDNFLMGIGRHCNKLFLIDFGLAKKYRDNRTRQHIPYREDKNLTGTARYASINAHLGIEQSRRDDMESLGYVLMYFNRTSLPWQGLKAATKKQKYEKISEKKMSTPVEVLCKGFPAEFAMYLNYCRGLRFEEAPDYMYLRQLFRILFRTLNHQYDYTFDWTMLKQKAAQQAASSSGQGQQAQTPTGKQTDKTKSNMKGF
T4 sequence (Q96SW2 whole entry): as the sequence (Q96SW2 whole entry) above
T4 sequence (Q16531 whole entry partner): as the sequence (Q16531 whole entry partner) above

IKZF2 = molecular target: T5, IKZF2 (Homo sapiens, UniProt Q96SW2+Q9UKS7); assay: Western-blot assay, substrate protein degradation in hPBMCs: IKZF2
T5 construct: effects of the compounds of the present disclosure on the expression of target proteins in cells; endogenous in cells; host or cells: human PBMCs (hPBMCs)
T5 sequence (Q9UKS7 whole entry): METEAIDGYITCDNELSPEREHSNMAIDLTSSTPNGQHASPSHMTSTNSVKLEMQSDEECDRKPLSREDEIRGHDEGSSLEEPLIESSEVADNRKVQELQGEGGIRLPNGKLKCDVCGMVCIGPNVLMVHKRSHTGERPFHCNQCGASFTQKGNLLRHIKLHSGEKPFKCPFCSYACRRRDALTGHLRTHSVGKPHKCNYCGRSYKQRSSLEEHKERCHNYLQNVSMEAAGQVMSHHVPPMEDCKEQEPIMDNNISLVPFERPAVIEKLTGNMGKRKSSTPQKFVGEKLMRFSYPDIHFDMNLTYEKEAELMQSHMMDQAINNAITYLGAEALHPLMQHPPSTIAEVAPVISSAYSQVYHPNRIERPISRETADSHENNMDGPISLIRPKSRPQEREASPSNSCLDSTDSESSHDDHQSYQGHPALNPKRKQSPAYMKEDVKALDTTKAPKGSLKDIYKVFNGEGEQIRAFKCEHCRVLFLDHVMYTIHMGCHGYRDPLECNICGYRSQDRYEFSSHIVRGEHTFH
T5 sequence (Q96SW2 whole entry): as the sequence (Q96SW2 whole entry) above
T5 sequence (Q16531 whole entry partner): as the sequence (Q16531 whole entry partner) above

IKZF1 = molecular target: T6, IKZF1 (Homo sapiens, UniProt Q13422+Q96SW2); assay: Western-blot assay, substrate protein degradation in hPBMCs: IKZF1
T6 construct: effects of the compounds of the present disclosure on the expression of target proteins in cells; endogenous in cells; host or cells: human PBMCs (hPBMCs)
T6 sequence (Q13422 whole entry): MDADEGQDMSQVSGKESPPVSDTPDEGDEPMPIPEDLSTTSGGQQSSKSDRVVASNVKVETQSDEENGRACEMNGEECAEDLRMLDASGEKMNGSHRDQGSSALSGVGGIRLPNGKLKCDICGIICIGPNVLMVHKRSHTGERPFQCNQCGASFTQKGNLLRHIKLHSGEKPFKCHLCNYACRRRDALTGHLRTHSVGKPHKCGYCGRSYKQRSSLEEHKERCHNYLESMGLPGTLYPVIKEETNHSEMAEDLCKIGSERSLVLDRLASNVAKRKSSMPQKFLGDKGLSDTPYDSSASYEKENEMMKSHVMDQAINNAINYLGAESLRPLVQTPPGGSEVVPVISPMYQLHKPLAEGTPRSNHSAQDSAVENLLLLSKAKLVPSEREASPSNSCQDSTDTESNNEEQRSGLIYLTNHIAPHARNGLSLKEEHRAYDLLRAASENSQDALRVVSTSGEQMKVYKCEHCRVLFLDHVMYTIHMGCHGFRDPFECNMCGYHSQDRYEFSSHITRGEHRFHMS
T6 sequence (Q96SW2 whole entry): as the sequence (Q96SW2 whole entry) above
T6 sequence (Q16531 whole entry partner): as the sequence (Q16531 whole entry partner) above

T1 sequence (Q9UKT9 whole entry): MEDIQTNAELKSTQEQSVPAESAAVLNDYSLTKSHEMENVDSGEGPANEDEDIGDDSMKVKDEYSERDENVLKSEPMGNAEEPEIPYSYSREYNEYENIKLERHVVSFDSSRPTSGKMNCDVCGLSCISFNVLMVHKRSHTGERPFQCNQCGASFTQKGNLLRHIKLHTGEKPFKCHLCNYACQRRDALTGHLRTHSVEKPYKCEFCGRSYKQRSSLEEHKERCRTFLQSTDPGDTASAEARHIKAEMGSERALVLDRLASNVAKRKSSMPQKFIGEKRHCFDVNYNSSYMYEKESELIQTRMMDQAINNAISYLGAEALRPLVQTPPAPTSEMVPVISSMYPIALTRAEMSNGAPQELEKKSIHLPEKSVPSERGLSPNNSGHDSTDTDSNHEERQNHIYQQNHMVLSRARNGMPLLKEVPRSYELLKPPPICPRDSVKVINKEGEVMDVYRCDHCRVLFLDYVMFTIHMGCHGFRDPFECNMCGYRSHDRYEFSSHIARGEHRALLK
T1 sequence (Q96SW2 whole entry): as the sequence (Q96SW2 whole entry) above
T1 sequence (Q16531 whole entry partner): as the sequence (Q16531 whole entry partner) above

SMILES	IKZF3 substrate protein remaining % (IKZF3)	GSPT1 substrate protein remaining % (GSPT1)	WEE1 substrate protein remaining % (WEE1)	CK1α substrate protein remaining % (CK1α)	IKZF2 substrate protein remaining % (IKZF2)	IKZF1 substrate protein remaining % (IKZF1)
O=C1CCN(N2C(=O)c3ccc(CN4CCN(c5ccccc5Cl)CC4)cc3C2=O)C(=O)N1 [GT-06726, 5-((4-(2-chlorophenyl)piperazin-1-yl)methyl)-2-(2,4-dioxotetrahydropyrimidin-1(2H)-yl)isoindoline-1,3-dione]	A ("A" is defined as 0% ≤ substrate protein remaining % ≤ 80%)	B ("B" is defined as 80%< substrate protein remaining %≤ 100%)	A ("A" is defined as 0% ≤ substrate protein remaining % ≤ 80%)	A ("A" is defined as 0% ≤ substrate protein remaining % ≤ 80%)	A ("A" is defined as 0% ≤ substrate protein remaining % ≤ 80%)	B ("B" is defined as 80%< substrate protein remaining %≤ 100%)
O=C1CCN(N2C(=O)c3ccc(CN4CCN(c5ccccc5Br)CC4)cc3C2=O)C(=O)N1 [GT-06727, 5-((4-(2-bromophenyl)piperazin-1-yl)methyl)-2-(2,4-dioxotetrahydropyrimidin-1(2H)-yl)isoindoline-1,3-dione]	A ("A" is defined as 0% ≤ substrate protein remaining % ≤ 80%)	B ("B" is defined as 80%< substrate protein remaining %≤ 100%)	B ("B" is defined as 80%< substrate protein remaining %≤ 100%)	A ("A" is defined as 0% ≤ substrate protein remaining % ≤ 80%)	A ("A" is defined as 0% ≤ substrate protein remaining % ≤ 80%)	B ("B" is defined as 80%< substrate protein remaining %≤ 100%)
COc1ccc(N2CCN(Cc3ccc4c(c3)C(=O)N(N3CCC(=O)NC3=O)C4=O)CC2)cc1 [GT-06728, 2-(2,4-dioxotetrahydropyrimidin-1(2H)-yl)-5-((4-(4-methoxyphenyl)piperazin-1-yl)methyl)isoindoline-1,3-dione]	A ("A" is defined as 0% ≤ substrate protein remaining % ≤ 80%)	B ("B" is defined as 80%< substrate protein remaining %≤ 100%)	B ("B" is defined as 80%< substrate protein remaining %≤ 100%)	A ("A" is defined as 0% ≤ substrate protein remaining % ≤ 80%)	A ("A" is defined as 0% ≤ substrate protein remaining % ≤ 80%)	B ("B" is defined as 80%< substrate protein remaining %≤ 100%)
COc1ccc(N2CCN(Cc3ccc4c(c3)CN(N3CCC(=O)NC3=O)C4=O)CC2)cc1 [GT-06767, 1-(5-((4-(4-methoxyphenyl)piperazin-1-yl)methyl)-1-oxoisoindolin-2-yl)dihydropyrimidine-2,4(1H,3H)-dione]	A ("A" is defined as 0% ≤ substrate protein remaining % ≤ 80%)	A ("A" is defined as 0% ≤ substrate protein remaining % ≤ 80%)	A ("A" is defined as 0% ≤ substrate protein remaining % ≤ 80%)	A ("A" is defined as 0% ≤ substrate protein remaining % ≤ 80%)	A ("A" is defined as 0% ≤ substrate protein remaining % ≤ 80%)	A ("A" is defined as 0% ≤ substrate protein remaining % ≤ 80%)
O=C1CCN(N2Cc3cc(CN4CCN(c5ccc(Br)cc5)CC4)ccc3C2=O)C(=O)N1 [GT-06768, 1-(5-((4-(4-bromophenyl)piperazin-1-yl)methyl)-1-oxoisoindolin-2-yl)dihydropyrimidine-2,4(1H,3H)-dione]	A ("A" is defined as 0% ≤ substrate protein remaining % ≤ 80%)	A ("A" is defined as 0% ≤ substrate protein remaining % ≤ 80%)	A ("A" is defined as 0% ≤ substrate protein remaining % ≤ 80%)	A ("A" is defined as 0% ≤ substrate protein remaining % ≤ 80%)	B ("B" is defined as 80%< substrate protein remaining %≤ 100%)	B ("B" is defined as 80%< substrate protein remaining %≤ 100%)
Cc1ccccc1N1CCN(Cc2ccc3c(c2)CN(N2CCC(=O)NC2=O)C3=O)CC1 [GT-06769, 1-(1-oxo-5-((4-(o-tolyl)piperazin-1-yl)methyl)isoindolin-2-yl)dihydropyrimidine-2,4(1H,3H)-dione]	A ("A" is defined as 0% ≤ substrate protein remaining % ≤ 80%)	A ("A" is defined as 0% ≤ substrate protein remaining % ≤ 80%)	A ("A" is defined as 0% ≤ substrate protein remaining % ≤ 80%)	A ("A" is defined as 0% ≤ substrate protein remaining % ≤ 80%)	A ("A" is defined as 0% ≤ substrate protein remaining % ≤ 80%)	B ("B" is defined as 80%< substrate protein remaining %≤ 100%)
Cc1ccc(N2CCN(Cc3ccc4c(c3)CN(N3CCC(=O)NC3=O)C4=O)CC2)cc1 [GT-06771, 1-(1-oxo-5-((4-(p-tolyl)piperazin-1-yl)methyl)isoindolin-2-yl)dihydropyrimidine-2,4(1H,3H)-dione]	A ("A" is defined as 0% ≤ substrate protein remaining % ≤ 80%)	A ("A" is defined as 0% ≤ substrate protein remaining % ≤ 80%)	A ("A" is defined as 0% ≤ substrate protein remaining % ≤ 80%)	A ("A" is defined as 0% ≤ substrate protein remaining % ≤ 80%)	A ("A" is defined as 0% ≤ substrate protein remaining % ≤ 80%)	B ("B" is defined as 80%< substrate protein remaining %≤ 100%)
O=C1CCN(N2Cc3cc(CN4CCN(c5ccc(Cl)cc5Cl)CC4)ccc3C2=O)C(=O)N1 [GT-06772, 1-(5-((4-(2,4-dichlorophenyl)piperazin-1-yl)methyl)-1-oxoisoindolin-2-yl)dihydropyrimidine-2,4(1H,3H)-dione]	A ("A" is defined as 0% ≤ substrate protein remaining % ≤ 80%)	A ("A" is defined as 0% ≤ substrate protein remaining % ≤ 80%)	A ("A" is defined as 0% ≤ substrate protein remaining % ≤ 80%)	A ("A" is defined as 0% ≤ substrate protein remaining % ≤ 80%)	A ("A" is defined as 0% ≤ substrate protein remaining % ≤ 80%)	B ("B" is defined as 80%< substrate protein remaining %≤ 100%)
O=C1CCN(N2Cc3cc(CN4CCN(c5c(Cl)cccc5Cl)CC4)ccc3C2=O)C(=O)N1 [GT-06774, 1-(5-((4-(2,6-dichlorophenyl)piperazin-1-yl)methyl)-1-oxoisoindolin-2-yl)dihydropyrimidine-2,4(1H,3H)-dione]	A ("A" is defined as 0% ≤ substrate protein remaining % ≤ 80%)	A ("A" is defined as 0% ≤ substrate protein remaining % ≤ 80%)	B ("B" is defined as 80%< substrate protein remaining %≤ 100%)	A ("A" is defined as 0% ≤ substrate protein remaining % ≤ 80%)	A ("A" is defined as 0% ≤ substrate protein remaining % ≤ 80%)	B ("B" is defined as 80%< substrate protein remaining %≤ 100%)
O=C1CCN(N2Cc3cc(CN4CCN(c5ccc(Cl)c(Cl)c5)CC4)ccc3C2=O)C(=O)N1 [GT-06775, 1-(5-((4-(3,4-dichlorophenyl)piperazin-1-yl)methyl)-1-oxoisoindolin-2-yl)dihydropyrimidine-2,4(1H,3H)-dione]	A ("A" is defined as 0% ≤ substrate protein remaining % ≤ 80%)	A ("A" is defined as 0% ≤ substrate protein remaining % ≤ 80%)	B ("B" is defined as 80%< substrate protein remaining %≤ 100%)	A ("A" is defined as 0% ≤ substrate protein remaining % ≤ 80%)	A ("A" is defined as 0% ≤ substrate protein remaining % ≤ 80%)	B ("B" is defined as 80%< substrate protein remaining %≤ 100%)
O=C1CCN(N2Cc3cc(CN4CCN(c5ccc(F)cc5F)CC4)ccc3C2=O)C(=O)N1 [GT-06778, 1-(5-((4-(2,4-difluorophenyl)piperazin-1-yl)methyl)-1-oxoisoindolin-2-yl)dihydropyrimidine-2,4(1H,3H)-dione]	B ("B" is defined as 80%< substrate protein remaining %≤ 100%)	A ("A" is defined as 0% ≤ substrate protein remaining % ≤ 80%)	B ("B" is defined as 80%< substrate protein remaining %≤ 100%)	A ("A" is defined as 0% ≤ substrate protein remaining % ≤ 80%)	B ("B" is defined as 80%< substrate protein remaining %≤ 100%)	B ("B" is defined as 80%< substrate protein remaining %≤ 100%)

Reference: patent publication EP4722207A1, “OXOISOINDOLINYL-SUBSTITUTED TETRAHYDROPYRIMIDINEDIONE DERIVATIVE AND USE THEREOF” (Gluetacs Therapeutics (Shanghai) Co., Ltd., priority 2023, dated 2024)
